Patent US20040053292A1, “Proteins and dna sequences underlying these proteins used for treating inflammations” (priority 2000, published 2004)
Peptide text beside a SMILES is read from it. * marks the point of attachment. Cbz = O=C(OCc1ccccc1)*; CH2F = FC*

Tested on: proIL-1β
Assay: in vitro pro-IL1β activation in THP.1 cell lysates incubated at 30° C., Western blotting
Type: biochemical, human
Settings: lysates of LPS-prestimulated THP.1 cells at 30° C.
Method: However, THP1 cells express caspase-5 even without LPS activation. FIG. 11c represents the results of experiments which emerge when cell lysates from THP.1 cells which have been prestimulated with LPS were incubated at 30° C. for the periods shown at the top in FIG. 11c. This is because caspase-1 activation is to be observed spontaneously when cytoplasmic cell extracts are heated to 30° C. The activation of caspase-1, caspase-5, caspase-9 and pro-IL1β, followed by Western blotting in the presence or absence of caspase inhibitors zVADfmk (50 μM), YVADfmk (5 μM) and proteasome inhibitor LLnL (50 μM) was measured as a function of time. Cytochrome C (1 ng) was added to activate Apaf-1 and caspase-9. The monoclonal antibodies employed to detect caspase-5 and caspase-9 each recognize the p20 subunit. The four sections of the picture in FIG. 11c depict the respective bands obtained by labeling with anti-caspase-1 antibody, anti-caspase-5 antibody, anti-caspase-9 antibody and anti-IL1β antibody. […]
Addition of the two caspase-1 inhibitors zVADfmk and YVADfmk blocked proIL-1β activation. […] Activation of pro-IL1β, caspase-1 and caspase-5 was measured both in the cell extracts (xt) and in the supernatants (SN). […] The cleavage of […] was detected by an antibody (anti-IL1β*) which specifically recognizes the cleaved form of pro-IL1β, i.e. IL1β*. […]

Molecule | proIL-1β activation (YVADfmk 5 μM) | proIL-1β activation (zVADfmk 50 μM)
YVADfmk | blocked | –
COC(=O)C[C@H](NC(=O)[C@H](C)NC(=O)[C@@H](NC(=O)OCc1ccccc1)C(C)C)C(=O)CF [zVADfmk] (Cbz-Val-Ala-Asp(OMe)-CH2F) | – | blocked
